Reference: patent publication US7396837B2, “Antitumoral analogs of lamellarins” (Pharma Mar, S.A.U., priority 2002, dated 2008)

Legend:
Format in all cases: cell-based
DU-145 = experiment: SRB colorimetric cell growth inhibition assay, DU-145; details: Homo sapiens, DU-145, DU-145; for GI50: GI=growth inhibition, read-out: GI50 DU-145; for CC50: LC=cell killing (cytotoxic effect), read-out: LC50 DU-145; for IC (TGI): TGI=total growth inhibition (cytostatic effect), read-out: TGI DU-145
Method in brief: (§1)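 Continuous drug exposure of human cancer cells; SRB protein stain read-out; triplicate wells, mean ± SD; GI, TGI, LC computed.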

HT-29 = experiment: SRB colorimetric cell growth inhibition assay, HT-29; details: Homo sapiens, HT-29, HT-29; for GI50: GI=growth inhibition, read-out: GI50 HT-29; for CC50: cell killing (cytotoxic effect), read-out: LC50 HT-29; for IC (TGI): total growth inhibition (cytostatic effect), read-out: TGI HT-29
Method in brief: as §1

H-MEC-1 = experiment: SRB colorimetric cell growth inhibition assay, H-MEC-1; details: Homo sapiens, HMEC-1, H-MEC-1; for GI50: GI=growth inhibition; for IC (TGI): TGI=total growth inhibition (cytostatic effect), read-out: TGI H-MEC-1
Method in brief: (§2)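 Growth and viability quantified by sulforhodamine B staining in 96-well microplates. Triplicate wells give mean ± SD; derived endpoints are GI, TGI (cytostatic) and LC (cytotoxic).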

[1] = as above; details: human, H-MEC-1 cells, H-MEC-1; LC=cell killing (cytotoxic effect); read-out: LC50 H-MEC-1
Method in brief: as §2

SK-BR-3 = experiment: SRB colorimetric cell growth inhibition assay, SK-BR-3; details: Homo sapiens, SK-BR-3, SK-BR-3; for GI50: GI=growth inhibition, read-out: GI50 SK-BR-3; for CC50: LC=cell killing (cytotoxic effect), read-out: LC50 SK-BR-3; for IC (TGI): TGI=total growth inhibition (cytostatic effect), read-out: TGI SK-BR-3
Method in brief: as §1

K-562 = experiment: SRB colorimetric cell growth inhibition assay, K-562; details: Homo sapiens, K562, K-562; for GI50: GI=growth inhibition, read-out: GI50 K-562; for CC50: cell killing (cytotoxic effect), read-out: LC50 K-562; for IC (TGI): total growth inhibition (cytostatic effect), read-out: TGI K-562
Method in brief: as §1

SKOV-3 = experiment: SRB colorimetric cell growth inhibition assay, SKOV-3; details: Homo sapiens; for GI50: SK-OV-3, SKOV-3, GI=growth inhibition, read-out: GI50 SKOV-3; for CC50 / IC (TGI): SK-OV-3, SKOV-3; for CC50: LC=cell killing (cytotoxic effect), read-out: LC50 SKOV-3; for IC (TGI): TGI=total growth inhibition (cytostatic effect), read-out: TGI SKOV-3
Method in brief: as §2

A-549 = experiment: SRB colorimetric cell growth inhibition assay, A-549; details: Homo sapiens, A549, A-549; for GI50: GI=growth inhibition, read-out: GI50 A-549; for CC50: cell killing (cytotoxic effect), read-out: LC50 A-549; for IC (TGI): total growth inhibition (cytostatic effect), read-out: TGI A-549
Method in brief: as §1

IGROV = experiment: SRB colorimetric cell growth inhibition assay, IGROV; details: Homo sapiens, IGROV; for GI50: GI=growth inhibition, read-out: GI50 IGROV; for CC50: LC=cell killing (cytotoxic effect), read-out: LC50 IGROV; for IC (TGI): TGI=total growth inhibition (cytostatic effect), read-out: TGI IGROV
Method in brief: as §1

SK-MEL-28 = experiment: SRB colorimetric cell growth inhibition assay, SK-MEL-28; details: Homo sapiens, SK-MEL-28, MEL-28; for GI50: GI=growth inhibition, read-out: GI50 MEL-28; for CC50: LC=cell killing (cytotoxic effect), read-out: LC50 MEL-28; for IC (TGI): TGI=total growth inhibition (cytostatic effect), read-out: TGI MEL-28
Method in brief: as §1

IGROV-ET = experiment: SRB colorimetric cell growth inhibition assay, IGROV-ET (ET-743 resistant); details: Homo sapiens, IGROV-ET; for GI50: GI=growth inhibition, read-out: GI50 IGROV-ET; for CC50: LC=cell killing (cytotoxic effect), read-out: LC50 IGROV-ET; for IC (TGI): TGI=total growth inhibition (cytostatic effect), read-out: TGI IGROV-ET
Method in brief: as §1

LoVo = experiment: SRB colorimetric cell growth inhibition assay, LoVo; details: Homo sapiens, LoVo; for GI50: GI=growth inhibition, read-out: GI50 LOVO; for CC50: cell killing (cytotoxic effect), read-out: LC50 LOVO; for IC (TGI): total growth inhibition (cytostatic effect), read-out: TGI LOVO
Method in brief: as §1

LNCaP = experiment: SRB colorimetric cell growth inhibition assay, LNCaP; details: Homo sapiens, LNCaP, LN-caP; for GI50: GI=growth inhibition, read-out: GI50 LN-caP; for CC50: LC=cell killing (cytotoxic effect), read-out: LC50 LN-caP; for IC (TGI): TGI=total growth inhibition (cytostatic effect), read-out: TGI LN-caP
Method in brief: as §1

PANC-1 = experiment: SRB colorimetric cell growth inhibition assay, PANC-1; details: Homo sapiens, PANC-1, PANC-1; for GI50: GI=growth inhibition, read-out: GI50 PANC-1; for CC50: cell killing (cytotoxic effect), read-out: LC50 PANC-1; for IC (TGI): total growth inhibition (cytostatic effect), read-out: TGI PANC-1
Method in brief: as §1

LoVo-Dox = experiment: SRB colorimetric cell growth inhibition assay, LoVo-Dox (MDR); details: Homo sapiens, LOVO-DOX; for GI50: GI=growth inhibition, read-out: GI50 LOVO-DOX; for CC50: cell killing (cytotoxic effect), read-out: LC50 LOVO-DOX; for IC (TGI): total growth inhibition (cytostatic effect), read-out: TGI LOVO-DOX
Method in brief: as §1

COc1cc(-c2c3n(c4c(=O)oc5cc(OC(=O)[C@@H](N)Cc6ccccc6)c(OC)cc5c24)CCc2cc(OC(=O)[C@@H](N)Cc4ccccc4)c(OC)cc2-3)ccc1OC(=O)[C@@H](N)Cc1ccccc1 [Compound 115]
GI50 (DU-145): 1.63 µM | CC50 (DU-145): 7.78 µM | IC (TGI) (DU-145): 4.29 µM | GI50 (HT-29): 2.92 µM | CC50 (HT-29): 7.78 µM | IC (TGI) (HT-29): 6.46 µM | GI50 (H-MEC-1): 0.213 µM | IC (TGI) (H-MEC-1): 0.452 µM | CC50 [1]: 2.96 µM | GI50 (SK-BR-3): 1.87 µM | CC50 (SK-BR-3): 7.53 µM | IC (TGI) (SK-BR-3): 3.75 µM | GI50 (K-562): 0.536 µM | CC50 (K-562): 7.78 µM | IC (TGI) (K-562): 2.47 µM | GI50 (SKOV-3): 1.1 µM | CC50 (SKOV-3): 5.13 µM | IC (TGI) (SKOV-3): 2.38 µM | GI50 (A-549): 1.65 µM | CC50 (A-549): 5.87 µM | IC (TGI) (A-549): 3.11 µM | GI50 (IGROV): 1.07 µM | CC50 (IGROV): 6.26 µM | IC (TGI) (IGROV): 2.58 µM | GI50 (SK-MEL-28): 1.45 µM | CC50 (SK-MEL-28): 4.83 µM | IC (TGI) (SK-MEL-28): 2.65 µM | GI50 (IGROV-ET): 1.7 µM | CC50 (IGROV-ET): 7.78 µM | IC (TGI) (IGROV-ET): 5.38 µM | GI50 (LoVo): 0.703 µM | CC50 (LoVo): 4.41 µM | IC (TGI) (LoVo): 1.82 µM | GI50 (LNCaP): 0.67 µM | CC50 (LNCaP): 3.87 µM | IC (TGI) (LNCaP): 1.67 µM | GI50 (PANC-1): 2.47 µM | CC50 (PANC-1): 7.78 µM | IC (TGI) (PANC-1): 7.78 µM | GI50 (LoVo-Dox): 1.76 µM | CC50 (LoVo-Dox): 7.78 µM | IC (TGI) (LoVo-Dox): 4.78 µM

COc1cc(-c2c3n(c4c(=O)oc5cc(OC(=O)[C@@H]6CCCN6)c(OC)cc5c24)CCc2c-3cc(OC)c(OC)c2OC(=O)[C@@H]2CCCN2)ccc1OC(=O)[C@@H]1CCCN1 [Compound 118]
GI50 (DU-145): 1.6 µM | CC50 (DU-145): 5.64 µM | IC (TGI) (DU-145): 3 µM | GI50 (HT-29): 1.92 µM | CC50 (HT-29): 6.59 µM | IC (TGI) (HT-29): 3.56 µM | GI50 (H-MEC-1): 1.45 µM | IC (TGI) (H-MEC-1): 3.06 µM | CC50 [1]: 6.45 µM | GI50 (SK-BR-3): 0.639 µM | CC50 (SK-BR-3): 6.25 µM | IC (TGI) (SK-BR-3): 2.04 µM | GI50 (K-562): 1.17 µM | CC50 (K-562): 6.57 µM | IC (TGI) (K-562): 2.77 µM | GI50 (SKOV-3): 2.02 µM | CC50 (SKOV-3): 8.22 µM | IC (TGI) (SKOV-3): 4.08 µM | GI50 (A-549): 1.8 µM | CC50 (A-549): 6.99 µM | IC (TGI) (A-549): 3.55 µM | GI50 (IGROV): 0.97 µM | CC50 (IGROV): 5.47 µM | IC (TGI) (IGROV): 2.3 µM | GI50 (SK-MEL-28): 1.65 µM | CC50 (SK-MEL-28): 5.49 µM | IC (TGI) (SK-MEL-28): 3 µM | GI50 (IGROV-ET): 0.876 µM | CC50 (IGROV-ET): 6.17 µM | IC (TGI) (IGROV-ET): 2.33 µM | GI50 (LoVo): 1.35 µM | CC50 (LoVo): 5.43 µM | IC (TGI) (LoVo): 2.7 µM | GI50 (LNCaP): 0.987 µM | CC50 (LNCaP): 4.76 µM | IC (TGI) (LNCaP): 2.16 µM | GI50 (PANC-1): 1.08 µM | CC50 (PANC-1): 5.35 µM | IC (TGI) (PANC-1): 2.4 µM | GI50 (LoVo-Dox): 0.45 µM | CC50 (LoVo-Dox): 3.86 µM | IC (TGI) (LoVo-Dox): 1.3 µM

COc1cc2ccn3c(c(-c4ccc(OS(=O)(=O)C(F)(F)F)c(OC)c4)c4c5cc(OC)c(OS(=O)(=O)C(F)(F)F)cc5oc(=O)c43)c2cc1OC [Compound 126]
GI50 (DU-145): 2.53 µM | CC50 (DU-145): 12.9 µM | IC (TGI) (DU-145): 6.49 µM | GI50 (HT-29): 3 µM | CC50 (HT-29): 12.9 µM | IC (TGI) (HT-29): 9.22 µM | GI50 (H-MEC-1): 0.746 µM | IC (TGI) (H-MEC-1): 2.25 µM | CC50 [1]: 6.46 µM | GI50 (SK-BR-3): 2.11 µM | CC50 (SK-BR-3): 1.29 µM | IC (TGI) (SK-BR-3): 5.36 µM | GI50 (K-562): 2.15 µM | CC50 (K-562): 8.69 µM | IC (TGI) (K-562): 4.32 µM | GI50 (SKOV-3): 3.48 µM | CC50 (SKOV-3): 12.9 µM | IC (TGI) (SKOV-3): 6.98 µM | GI50 (A-549): 2.98 µM | CC50 (A-549): 2.25 µM | IC (TGI) (A-549): 5.74 µM | GI50 (IGROV): 2.26 µM | CC50 (IGROV): 12.6 µM | IC (TGI) (IGROV): 5.32 µM | GI50 (SK-MEL-28): 2.93 µM | CC50 (SK-MEL-28): 9.48 µM | IC (TGI) (SK-MEL-28): 5.27 µM | GI50 (IGROV-ET): 3.88 µM | CC50 (IGROV-ET): 12.9 µM | IC (TGI) (IGROV-ET): 7.87 µM | GI50 (LoVo): 2.56 µM | CC50 (LoVo): 12.6 µM | IC (TGI) (LoVo): 5.68 µM | GI50 (LNCaP): 1.25 µM | CC50 (LNCaP): 6.04 µM | IC (TGI) (LNCaP): 2.76 µM | GI50 (PANC-1): 2.19 µM | CC50 (PANC-1): 12.9 µM | IC (TGI) (PANC-1): 6.57 µM | GI50 (LoVo-Dox): 12.9 µM | CC50 (LoVo-Dox): 12.9 µM | IC (TGI) (LoVo-Dox): 12.9 µM
